For series [1], the target named is T1, rat adrenergic α1A receptor (Rattus norvegicus, UniProt P43140).
T1 construct: from tissue; host or cells: Wistar rat submaxillary glands
T1 sequence (P43140 1-466): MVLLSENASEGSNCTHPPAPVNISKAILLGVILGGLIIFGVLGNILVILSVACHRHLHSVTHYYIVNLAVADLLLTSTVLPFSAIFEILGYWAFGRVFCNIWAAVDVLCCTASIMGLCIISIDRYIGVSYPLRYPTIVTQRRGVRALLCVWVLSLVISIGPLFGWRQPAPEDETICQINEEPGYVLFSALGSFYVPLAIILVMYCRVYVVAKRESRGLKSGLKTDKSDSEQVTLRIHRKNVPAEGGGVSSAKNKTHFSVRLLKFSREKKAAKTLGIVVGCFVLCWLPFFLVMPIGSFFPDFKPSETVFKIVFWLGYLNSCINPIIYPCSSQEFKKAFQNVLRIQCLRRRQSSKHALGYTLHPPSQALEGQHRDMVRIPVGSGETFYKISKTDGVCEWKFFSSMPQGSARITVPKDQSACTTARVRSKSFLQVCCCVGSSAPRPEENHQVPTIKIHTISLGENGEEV
The experiment in a line: Adrenergic α1A radioligand binding ([3H]Prozosin). Particulars: compound at 1 μM. The procedure: To evaluate in radioligand binding assays the activity of compounds of the invention, rat adrenergic α1A receptor obtained from Wistar Rat submaxillary glands (Michel, A. D. et al., Br. J. Pharmacol. 98:883, 1989) in a modified Tris-HCl buffer (50 mM Tris-HCl buffer, pH 7.4, 0.5 mM EDTA) was used. Compounds of the invention were incubated with 0.25 nM [^3H]Prozosin for 60 min. at 25° C. Non-specific binding was estimated in the presence of 10 μM phentolamine. Receptor proteins were filtered and washed, the filters were then counted to determine [^3H]Prozosin specifically bound. Compounds of the invention were screened at 1 μM or lower, using 1% DMSO as vehicle. Compounds of the invention were tested in this biochemical assay and percent inhibition of specific binding was determined.

The target in series [2] is T2, human recombinant serotonin (5-Hydroxytryptamine) 5-HT2B receptor (Homo sapiens, UniProt P41595).
T2 construct: expressed in transfected cells; host or cells: Chinese hamster ovary (CHO-K1) cells
T2 sequence (P41595 whole entry): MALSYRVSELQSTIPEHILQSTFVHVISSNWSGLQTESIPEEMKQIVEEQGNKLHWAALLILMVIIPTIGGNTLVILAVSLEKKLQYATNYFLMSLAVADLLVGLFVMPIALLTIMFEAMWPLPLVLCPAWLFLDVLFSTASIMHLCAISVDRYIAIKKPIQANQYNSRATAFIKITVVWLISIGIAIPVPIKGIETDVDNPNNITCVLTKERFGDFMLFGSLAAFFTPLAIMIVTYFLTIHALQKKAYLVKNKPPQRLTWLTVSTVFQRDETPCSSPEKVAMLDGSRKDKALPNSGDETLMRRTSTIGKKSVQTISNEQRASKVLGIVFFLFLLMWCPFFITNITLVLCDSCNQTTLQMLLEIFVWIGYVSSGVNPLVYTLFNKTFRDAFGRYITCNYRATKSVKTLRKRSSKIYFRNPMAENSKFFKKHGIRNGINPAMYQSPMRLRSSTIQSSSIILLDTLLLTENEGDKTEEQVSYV
The series can be described thus: Serotonin 5-HT2B radioligand binding ([3H]LSD). Particulars: for inhibition at 0.1 µM: compound at 0.1 μM; for inhibition at 0.1 µM / inhibition at 1 µM: read-out: Inhibition of ligand binding, Serotonin 5-HT2B (percent inhibition of specific binding). As for the experimental part: Compounds of invention were incubated with 1.2 nM [^3H]Lysergic acid diethylamide (LSD) for 60 min. at 37° C. […] Receptor proteins were filtered and washed, the filters were then counted to determine [^3H]LSD specifically bound. Compounds were screened at 1 μM or lower, using 1% DMSO as vehicle. Compounds of the invention were tested in this biochemical assay and percent inhibition of specific binding was determined. Biochemical assay results are presented as the percent inhibition of specific binding in Table 10.

The subject of another series is C57B1I6J mice. The series can be described thus: Catalepsy in the mouse bar test (EPS model). The class given is in vivo. The note with it: for effects on catalepsy, ANOVA: 0.03, 0.1, 0.3, 1, 3, 10, 30 oral, 30 min, 1 h, and 3 h, incl. haloperidol group. The text has this:
Antipsychotic drugs are known to induce extrapyramidal syndrome (EPS) in animals and in humans. An animal model considered to be predictive of EPS is the mouse bar test, which measures cataleptic responses to pharmacological agents.
Male C57B1I6J mice from Jackson Laboratories (Bar Harbor, Me.) were used. Mice were received at 6-weeks of age. Upon receipt, mice were assigned unique identification numbers (tail marked) and were group housed with 4 mice/cage in OptiMICE ventilated cages. All animals remained housed in groups of four during the remainder of the study. All mice were acclimated to the colony room for at least two weeks prior to testing and were subsequently tested at an average age of 8 weeks. During the period of acclimation, mice were examined on a regular basis, handled, and weighed to assure adequate health and suitability. Animals were maintained on a 12 h/12 h light/dark cycle. The room temperature was maintained between 20 and 23° C. with a relative humidity maintained between 30% and 70%. Chow and water were provided ad libitum for the duration of the study. In each test, animals were randomly assigned across treatment groups.
The following compounds were used for this study. 1) Compound No. 83, 88 or 90 (0.03, 0.1, 0.3, 1, 3, 10, 30) was dissolved in 3% Tween in PBS and administered orally at a dose volume of 10 mL/kg; 2) Haloperidol (2 mg/kg) was dissolved in 10% DMSO and administered i.p. at a dose volume of 10 mL/kg.
The front paws of a mouse were placed on a horizontal metal bar raised 2″ above a Plexiglas platform and time was recorded for up to 30 seconds per trial. The test ended when the animal's front paws returned to the platform or after 30 seconds. The test was repeated three times and the average of the three trials was reported as the intensity index of catalepsy. Antipsychotic agents such as haloperidol cause rigidity as a side effect. Animals treated with haloperidol will hold on to the bar without moving for several minutes. Mice were brought to the activity experimental room for at least 1 h acclimation to the experimental room conditions prior to testing. Following injection of either vehicle, Compound No. 83, 88 or 90, or haloperidol, catalepsy was assessed at 3 time points: 30 min, 1 h, and 3 h. At the end of each trial, the apparatus was thoroughly cleaned with 70% ethanol.
Data were analyzed by analysis of variance (ANOVA) followed by post-hoc comparisons with Fisher Tests when appropriate. An effect was considered significant if p<0.05.

[3] abbreviates: percent inhibition of specific binding, read-out: Inhibition of ligand binding, Adrenergic α1A.

Where two headings read alike, the source gives them in different places.

By inhibition is commonly meant the change of the read-out against control, counted positive when it falls. In the case of `CCN1CCc2c(c3cc(C)ccc3n2CC(O)c2ccc(C)cc2)C1` (racemic) [Compound 51, racemic-2-(2-ethyl-1,2,3,4-tetrahydro-8-methylpyrido[4,3-b]indol-5-yl)-1-p-tolylethanol], the inhibition at 1 µM in series [1] (setting [3]) is 86%; in series [2] (compound at 1 μM), 32%. In addition, the inhibition at 0.1 µM in series [2] came out at 12%.

Regarding `C/C(=C\n1c2c(c3cc(Cl)ccc31)CN(C)CC2)c1ccncc1` [Compound 90, (E)-8-chloro-2,3,4,5-tetrahydro-2-methyl-5-(2-(pyridin-4-yl)prop-1-enyl)-1H-pyrido[4,3-b]indole], in the series on C57B1I6J mice (10 mg/kg, oral), the “latency to hold the bar” value is reported as “increase”. Also, the “sedation observed in bar test” value in the series with C57B1I6J mice (10 mg/kg, oral) was “also caused sedation, but at lower levels”; in the series with C57B1I6J mice (30 mg/kg, oral), “caused high levels of sedation”. For the same compound, the “effects on catalepsy, ANOVA” value in the series with C57B1I6J mice was “significant treatment effect”.

Take `C/C(=C\n1c2c(c3cc(Cl)ccc31)CN(C)CC2)c1ccc(F)cc1` [Compound 83, (E)-8-chloro-5-(2-(4-fluorophenyl)prop-1-enyl)-2,3,4,5-tetrahydro-2-methyl-1H-pyrido[4,3-b]indole]: the inhibition at 1 µM in series [1] (setting [3]) was 90%; in series [2] (compound at 1 μM), 88%. The “sedation observed in bar test” value with C57B1I6J mice (10 mg/kg, oral) was “also caused sedation, but at lower levels”; in the series with C57B1I6J mice (30 mg/kg, oral), “caused sedation”. In the series on C57B1I6J mice, the “effects on catalepsy, ANOVA” value is “significant treatment effect”.

As to `Cc1ccc(C(O)Cn2c3c(c4ccccc42)CN(C)CC3)cc1` (racemic) [Compound 53, racemic-2-(1,2,3,4-tetrahydro-2-methylpyrido[4,3-b]indol-5-yl)-1-p-tolylethanol], the inhibition at 1 µM was 74% in series [1] (setting [3]) and 23% in series [2] (compound at 1 μM).

`Cc1ccc2c(c1)c1c(n2CC#Cc2ccccn2)CCN(C)C1` [Compound No. 500, 2,3,4,5-tetrahydro-2,8-dimethyl-5-(3-(pyridin-2-yl)prop-2-ynyl)-1H-pyrido[4,3-b]indole]: the inhibition at 1 µM in series [1] (read-out: Inhibition of ligand binding, Adrenergic α1A (percent inhibition of specific binding)) stood at 27%; in series [2] (compound at 1 μM) it was 34%.

For `Cc1ccc(C(O)Cn2c3c(c4cc(C)ccc42)CN(C)CC3)cc1` (racemic) [Compound 43, racemic-2-(1,2,3,4-tetrahydro-2,8-dimethylpyrido[4,3-b]indol-5-yl)-1-p-tolylethanol], in series [1] (percent inhibition of specific binding, 1 µM), the “Inhibition of ligand binding, Adrenergic α1A” value was 96%. For the same compound, the inhibition at 1 µM was determined as 90% in series [1] (setting [3]) and 70% in series [2] (compound at 1 μM). Besides, the inhibition at 0.1 µM in series [2] was -2%. In addition, the “Inhibition of ligand binding, Serotonin 5-HT2B (percent inhibition of specific binding)” value in series [2] (compound at 1 μM, 1 µM) is 77%.

Regarding `CCN1CCc2c(c3ccccc3n2CC(O)c2ccc(C)cc2)C1` (racemic) [Compound 44, racemic-2-(2-ethyl-1,2,3,4-tetrahydropyrido[4,3-b]indol-5-yl)-1-p-tolylethanol], the inhibition at 1 µM in series [1] (setting [3]) is 39%; in series [2] (compound at 1 μM) it was 11%.

On to `C/C(=C\n1c2c(c3cc(C)ccc31)CN(C)CC2)c1ccncc1` [Compound 88, (E)-2,3,4,5-tetrahydro-2,8-dimethyl-5-(2-(pyridin-4-yl)prop-1-enyl)-1H-pyrido[4,3-b]indole], for which, in the series with C57B1I6J mice, the “effects on catalepsy, ANOVA” value is “significant treatment effect”. In addition, the “sedation observed in bar test” value in the series on C57B1I6J mice (30 mg/kg, oral) is recorded as “caused sedation”. Moreover, the “other effects in bar test” value in the series with C57B1I6J mice (doses other than 30 mg/kg, oral) is on record as “No other effects”.

For the origin of these results see US8906925B2, “Pyrido[4,3-B]indoles containing rigid moieties” (Medivation Technologies, Inc., priority 2008, dated 2014).
